{"source": "patent US10441681B2", "about": "“Materials and methods for nerve grafting” (University of Florida Research Foundation, Inc., priority 2001, dated 2019)", "key": {"rat sciatic nerve [1]": {"tested_on": "rat sciatic nerve", "test": "Axonal regeneration into acellular interpositional nerve grafts (GAP-43 profiles)", "format": "in vivo", "description": "Adult (180-200 g) female SPRAGUE DAWLEY rats (HARLAN, Indianapolis, Ind.) were used as nerve donors and recipient hosts. Donor rats were anesthetized with halothane and decapitated. Sciatic nerves were exposed through a gluteal muscle-splitting incision and isolated free of underlying fascia. A 15-mm nerve segment was excised rostral to the bifurcation into common peroneal and tibial nerves. The segments were rinsed with cold sterile Ringer's solution, stabilized by pinning the ends to a thin plastic support, and transferred to a cryogenic vial. The vials were submerged in liquid nitrogen for 2 minutes and then transferred to a 37° C. water bath for 2 minutes. This freeze/thaw cycle was repeated, yielding acellular nerve grafts that were then stored in liquid nitrogen. On the day before grafting, the nerve grafts were warmed to room temperature and incubated in 100 μl phosphate buffered saline pH 7.4 (PBS) containing 2 units/ml chondroitinase ABC (SIGMA, St. Louis, Mo.) or in PBS (vehicle) only for 16 hours at 37° C. The grafts were rinsed twice with Ringer's and kept on ice prior to use. The chondroitinase ABC preparation was highly purified and stated by the manufacturer to be essentially free of protease activity.\nTwelve rats received bilateral acellular nerve grafts, one chondroitinase-treated and one vehicle-treated graft. Host rats were deeply anesthetized using xylazine (15 mg/kg, i.m.) and ketamine (110 mg/kg, i.p.). The sciatic nerve was exposed and supported by a plastic insert placed between the nerve and underlying tissue. The region of nerve halfway between the sciatic notch and bifurcation was first coated with fibrin glue. Using serrated scissors, a 2.5-mm segment of host nerve was excised and replaced with a freshly trimmed 10-mm acellular nerve graft. The graft was coapted to the host nerve stumps by epineurial neurorrhaphy using one 9-0 ETHILON suture at each end. […] The muscle was closed with 4-0 sutures and the skin with wound clips. After recovery from the anesthetic, animals were returned to standard housing.\nNine rats were terminated at 8 days and four at 4 days after grafting. Animals were deeply anesthetized and decapitated. The graft and 3 mm of proximal and distal host nerve were removed, immersed in 4% paraformaldehyde in 0.1 M phosphate buffer (pH 7.4) overnight at 4° C. The specimens were equilibrated with PBS and immersed in 30% sucrose/phosphate buffer for 2 days at 4° C. […]\nThe main grafts were sectioned serially on the transverse plane in recorded measure to assess the extent of axonal growth by microscopy. […] GAP-43-positive axon profiles were scored using IMAGE-PRO PLUS software (MEDIA CYBERNETICS, Silver Springs, Md.). […]"}, "rat sciatic nerve [2]": {"tested_on": "rat sciatic nerve", "test": "Axonal regeneration after bilateral sciatic nerve crush injury (axonotmesis)", "format": "in vivo", "details": "two days after injury, 1 U in 2 μl injected, n=6", "procedure": "All surgical procedures were performed according to Institutional Animal Care and Use Committee (IACUC) approved protocols. Young adult SPRAGUE DAWLEY rats (HARLAN Indianapolis, Ind.) were deeply anesthetized with xylazine (15 mg/kg, i.m.) followed by ketamine-HCl (110 mg/kg, i.p.). Six animals received bilateral nerve crush injuries. Sciatic nerves were exposed and then crushed with firm pressure for thirty seconds with a DUMONT #5 forceps at a site 4 mm distal to the tendon of the internal obdurator. The crush site was marked with an epineurial suture. In a separate set of experiments, eight rats received bilateral sciatic nerve transection injuries using serrated scissors. The proximal and distal stumps were […] by epineurial neurorrhaphy using 9-0 ETHILON sutures. Fibrin glue (fibrinogen and thrombin) was then applied to stabilize the union. In both injury models, the right sciatic nerves were injected 2-mm distal to the injury with chondroitinase ABC (1 U in 2 μl) (high-purity, protease-free; SIGMA CHEMICAL CO., St. Louis, Miss.). Left sciatic nerves (with the same injury as the right side) were injected with vehicle alone (0.1% bovine serum albumin in PBS). […]\nThe hypothesis that chondroitinase treatment improves axonal growth through the site of nerve crush injury was tested. […] Regenerating axons were labeled by GAP-43 immunofluorescence and scored by digital image analysis. […]"}}, "data": [{"substance": "chondroitinase ABC", "values": [{"measurement": "axonal penetration vs vehicle-treated grafts", "setting": "rat sciatic nerve [1]; 4-day grafts, 0.3 mm from the host-graft interface, 3 animals", "result": "five-fold greater"}, {"measurement": "average number of axons (GAP-43-immunopositive profiles) entering grafts vs control grafts", "setting": "rat sciatic nerve [1]; 8-day acellular syngrafts, en bloc treated, n=9", "result": "more than three-fold greater"}, {"measurement": "number of axons at the distal ends of grafts vs control", "setting": "rat sciatic nerve [1]; 8-day grafts", "result": "a similar number of axons"}, {"measurement": "propensity of axons to grow within basal laminae", "setting": "rat sciatic nerve [1]; 8-day grafts, GAP-43/laminin double label", "result": "unaltered"}, {"measurement": "axonal regeneration after nerve crush injury (GAP-43 immunoreactivity)", "setting": "rat sciatic nerve [2]", "result": "no significant difference"}, {"measurement": "axonal regeneration after nerve crush injury (GAP-43 immunoreactivity)", "setting": "rat sciatic nerve [2]; listed as chondroitinase", "result": "not significantly effected"}]}]}
